Organism: Rattus norvegicus
Assay: DrugMatrix - Regimen: Daily Repeat
Format: toxicity, organism-based, Sprague-Dawley
Parameters: regimen Daily Repeat, gender Male, age 6-8 weeks
Conditions: in vivo, po, 5 mg/kg, route oral GAVAGE, dose level High, vehicle .5 % CMC; for ABSOLUTE BASOPHIL / ABSOLUTE EOSINOPHIL / ABSOLUTE LYMPHOCYTE / ABSOLUTE MONOCYTE / ABSOLUTE SEGMENTED NEUTROPHIL / BASOPHIL / EOSINOPHIL / ERYTHROCYTE COUNT / HEMATOCRIT / HEMOGLOBIN / LEUKOCYTE COUNT / LYMPHOCYTE / MEAN CORPUSCULAR HEMOGLOBIN / MEAN CORPUSCULAR HEMOGLOBIN CONCENTRATION / MEAN CORPUSCULAR VOLUME / MONOCYTE / NEUTROPHIL / NUCLEATED RED BLOOD CELLS / PLATELET COUNT: tissue Blood; for ALANINE AMINOTRANSFERASE / ALBUMIN / ALKALINE PHOSPHATASE / ASPARTATE AMINOTRANSFERASE / BLOOD UREA NITROGEN / CARBON DIOXIDE / CHLORIDE / CHOLESTEROL / CREATINE PHOSPHOKINASE / CREATININE / GLUCOSE / LACTATE DEHYDROGENASE / LIPASE / PHOSPHORUS / POTASSIUM / SODIUM / TOTAL BILIRUBIN / TOTAL PROTEIN / URIC ACID: tissue Plasma

Compound: Nc1c(CC(=O)O)cccc1C(=O)c1ccc(Br)cc1 [BROMFENAC]
- ABSOLUTE BASOPHIL (72 h, time 3 day): 0 CELLS/uL
- ABSOLUTE EOSINOPHIL (72 h, time 3 day): 0 CELLS/uL
- ABSOLUTE LYMPHOCYTE (72 h, time 3 day): 5201.4 CELLS/uL
- ABSOLUTE MONOCYTE (72 h, time 3 day): 116 CELLS/uL
- ABSOLUTE SEGMENTED NEUTROPHIL (72 h, time 3 day): 1982.6 CELLS/uL
- BASOPHIL (72 h, time 3 day): 0%
- EOSINOPHIL (72 h, time 3 day): 0%
- ERYTHROCYTE COUNT (72 h, time 3 day): 4.97 x10E6/uL
- HEMATOCRIT (72 h, time 3 day): 30.78%
- HEMOGLOBIN (72 h, time 3 day): 11.8 G/DL
- LEUKOCYTE COUNT (72 h, time 3 day): 7.3 x10E3/uL
- LYMPHOCYTE (72 h, time 3 day): 72.6%
- MEAN CORPUSCULAR HEMOGLOBIN (72 h, time 3 day): 23.92 pg
- MEAN CORPUSCULAR HEMOGLOBIN CONCENTRATION (72 h, time 3 day): 38.52 G/DL
- MEAN CORPUSCULAR VOLUME (72 h, time 3 day): 62.06 fL
- MONOCYTE (72 h, time 3 day): 1.8%
- NEUTROPHIL (72 h, time 3 day): 25.6%
- NUCLEATED RED BLOOD CELLS (72 h, time 3 day): 0 /100WBC
- PLATELET COUNT (72 h, time 3 day): 593.4 x10E3/uL
- ALANINE AMINOTRANSFERASE (72 h, time 3 day): 100 u/L
- ALBUMIN (72 h, time 3 day): 3.64 G/DL
- ALKALINE PHOSPHATASE (72 h, time 3 day): 337.8 u/L
- ASPARTATE AMINOTRANSFERASE (72 h, time 3 day): 193.2 u/L
- BLOOD UREA NITROGEN (72 h, time 3 day): 10.2 mg/dL
- CARBON DIOXIDE (72 h, time 3 day): 31.2 mmol/L
- CHLORIDE (72 h, time 3 day): 103.4 MEQ/L
- CHOLESTEROL (72 h, time 3 day): 84.6 mg/dL
- CREATINE PHOSPHOKINASE (72 h, time 3 day): 304.4 u/L
- CREATININE (72 h, time 3 day): 0.19 mg/dL
- GLUCOSE (72 h, time 3 day): 147.4 mg/dL
- LACTATE DEHYDROGENASE (72 h, time 3 day): 116.6 u/L
- LIPASE (72 h, time 3 day): 8.4 u/L
- PHOSPHORUS (72 h, time 3 day): 11.14 mg/dL
- POTASSIUM (72 h, time 3 day): 5.44 MEQ/L
- SODIUM (72 h, time 3 day): 146.66 MEQ/L
- TOTAL BILIRUBIN (72 h, time 3 day): 0.14 mg/dL
- TOTAL PROTEIN (72 h, time 3 day): 5.36 G/DL
- URIC ACID (72 h, time 3 day): 0.76 mg/dL
- ABSOLUTE BASOPHIL (120 h, time 5 day): 0 CELLS/uL
- ABSOLUTE EOSINOPHIL (120 h, time 5 day): 23.5 CELLS/uL
- ABSOLUTE LYMPHOCYTE (120 h, time 5 day): 8259.25 CELLS/uL
- ABSOLUTE MONOCYTE (120 h, time 5 day): 191.75 CELLS/uL
- ABSOLUTE SEGMENTED NEUTROPHIL (120 h, time 5 day): 1625.5 CELLS/uL
- BASOPHIL (120 h, time 5 day): 0%
- EOSINOPHIL (120 h, time 5 day): 0.25%
- ERYTHROCYTE COUNT (120 h, time 5 day): 4.46 x10E6/uL
- HEMATOCRIT (120 h, time 5 day): 28.57%
- HEMOGLOBIN (120 h, time 5 day): 11 G/DL
- LEUKOCYTE COUNT (120 h, time 5 day): 10.1 x10E3/uL
- LYMPHOCYTE (120 h, time 5 day): 81.75%
- MEAN CORPUSCULAR HEMOGLOBIN (120 h, time 5 day): 24.82 pg
- MEAN CORPUSCULAR HEMOGLOBIN CONCENTRATION (120 h, time 5 day): 38.55 G/DL
- MEAN CORPUSCULAR VOLUME (120 h, time 5 day): 64.3 fL
- MONOCYTE (120 h, time 5 day): 2%
- NEUTROPHIL (120 h, time 5 day): 16%
- NUCLEATED RED BLOOD CELLS (120 h, time 5 day): 0.5 /100WBC
- PLATELET COUNT (120 h, time 5 day): 1087.25 x10E3/uL
- ALANINE AMINOTRANSFERASE (120 h, time 5 day): 38.5 u/L
- ALBUMIN (120 h, time 5 day): 3.65 G/DL
- ALKALINE PHOSPHATASE (120 h, time 5 day): 255.67 u/L
- ASPARTATE AMINOTRANSFERASE (120 h, time 5 day): 60 u/L
- BLOOD UREA NITROGEN (120 h, time 5 day): 13.75 mg/dL
- CARBON DIOXIDE (120 h, time 5 day): 31.5 mmol/L
- CHLORIDE (120 h, time 5 day): 101.67 MEQ/L
- CHOLESTEROL (120 h, time 5 day): 80.25 mg/dL
- CREATINE PHOSPHOKINASE (120 h, time 5 day): 189 u/L
- CREATININE (120 h, time 5 day): 0.15 mg/dL
- GLUCOSE (120 h, time 5 day): 141.25 mg/dL
- LACTATE DEHYDROGENASE (120 h, time 5 day): 82.25 u/L
- LIPASE (120 h, time 5 day): 8.25 u/L
- PHOSPHORUS (120 h, time 5 day): 10.7 mg/dL
- POTASSIUM (120 h, time 5 day): 5.87 MEQ/L
- SODIUM (120 h, time 5 day): 145.27 MEQ/L
- TOTAL BILIRUBIN (120 h, time 5 day): 0.13 mg/dL
- TOTAL PROTEIN (120 h, time 5 day): 5.8 G/DL
- URIC ACID (120 h, time 5 day): 0.57 mg/dL

From ChEMBL document CHEMBL3885881, “DrugMatrix”
